Experiment: pKa and color of the azo dyes on dissociation of a proton
Format: physicochemical
Text: Therefore, because the components (B) and (C) coexist with the component (A) in the powder hair dye composition of the present invention, a proton of the component (A) is dissociated and a color of the composition becomes close to one after hair dyeing.

color assumed by dissociation of a proton | SMILES
yellow color | Cn1nccc1/N=N/c1ccc(O)c(Cl)c1 [(A-3), HC Yellow 16]
red color | CSc1nsc(/N=N/c2ccc(O)c(Cl)c2)n1 [(A-1), HC Blue 18]
blue color | NS(=O)(=O)c1ccc2nsc(/N=N/c3ccc(O)c(Cl)c3)c2c1 [(A-2), HC Red 18]

Source: US11090246B2, “Powder hair dye composition” (KAO CORPORATION, priority 2017, dated 2021)
